How the values were obtained:
[1] = test system: microglia (Iba-1) positive cells; assay: Immunofluorescence staining of Iba-1 in Str and SN brain regions; type: in vivo, Sprague-Dawley rats; details: Mean ± SEM, N=15; for Iba-1 staining SN positive cells num.: Model 397.8 ± 21.2; for Iba-1 staining Str positive cells num.: Model 668.3 ± 13.0
Description: After the rat was anesthetized, the abdominal cavity and thorax were cut open with straight scissors to expose the heart. The blood was first flushed out with normal saline perfusion, and then paraformaldehyde was used for initial perfusion fixation. The head was cut off, and the brain case was carefully opened with tweezers, and the brain tissue was removed and placed in paraformaldehyde solution and fix for 24 h; on the second day, took out the brain tissue and placed in 20% sucrose solution for 24 h; on the third day, took out the brain tissue and placed in 30% sucrose solution for 24 h; on the fourth day, took out the brain tissue and placed in 35% sucrose solution for 24 h (increase the time or concentration appropriately according to the condition of sugar deposition in the brain tissues); took out the brain tissue, embedded it in OCT embedding agent, and cut brain slices at the thickness of […] with a freezing microtome.
Immunohistochemical staining of TH and Iba-1 was performed on the sections. Sections were rewarmed for 30 min, closed at room temperature for 1 h with 50% serum+0.3% TritonX-100 in 50 μL per slice, shook off the slices, added primary antibody (diluted in PBS), overnight at 4° C.; rewarmed for 30 min; washed off primary antibody (PBS), 5 min×3 times; added secondary antibody (diluted in PBS) by backlighting, room temperature for 2 h; washed off secondary antibody (PBS), 5minx 3 times; added (4′,6-diamidino-2-phenylindole) (DAPI), and stayed at room temperature for 10 min; washed off DAPI, 5 min×3 times; added 70% glycerol to seal the slices to avoid air bubbles. Observed and took pictures under a microscope. Selected basically the same target brain area for each slice. Afterwards, ImageJ was used to count the signal number or area of the entire slice.
Experimental Methods: Seventy 180-220g SD male rats were selected and fed for one week for accumulation, and the PD model was established by stereotactic unilateral injection of 6-OHDA in the Substantia Nigra (SN) and Striatum (Str) regions and were randomly divided into five groups according to their body weights including Madopar group (Madopar, 50 mg/kg), BTUDC-L group (BTUDC, 100 mg/kg), BTUDC-M group (BTUDC, 500 mg/kg), and BTUDC-H group (BTUDC, 1000 mg/kg), with 10 animals in each group. Another 10 SD male rats were taken for sham operation (only 4 μL of 0.9% NS containing 0.02% ascorbic acid was given to the SN and Str brain regions during modeling) as the Sham group. The drug was administered by gavage once daily continuously for 21 days starting on the second day of modeling (first day of dosing, D1). General observation was made during the dosing period. At the end of the administration, the test articles were evaluated for tolerance in this model and in behavioral apomorphine—asymmetric rotation test, beam test, rotarod test and grip strength test, immunofluorescence staining (TH, Ibal), and cerebrospinal fluid inflammatory factor assays to evaluate the pharmacodynamic effects of the test articles. Inflammatory factors tested included interleukin 6 (1L-6), inflammatory factor […], Tumor Necrosis Factor alpha (TNF-α), inflammatory assays were done in a total of 4 groups included Sham, Model, Madopar and BTUDC-H groups.
Dosing volume: 10 mL/kg • 1. General observation: During the period of drug administration, body weight, food intake test and cage side observation were conducted every 3 days. • 2. Behavioral test: After 21 days of administration, behavioral test was carried out on the following day. • 3. […]

TNF-α = assay: Elisa test of cerebrospinal fluid, TNF-α; type: in vivo, Sprague-Dawley rats; details: rat cerebrospinal fluid; BTUDC-H 1000 mg/kg p.o. Qd 21 days; Mean ± SEM, n=10; Model 271.022 ± 8.145; p<0.05 vs Model
Text: The cerebrospinal fluid was directly extracted by inserting a needle through the foramen magnum, and the supernatant was collected after centrifugation for ELISA testing. The kit brand was Shanghai Enzyme Link. The product codes of IL-6, IL-1β, and TNF-α were m1064292, m1037361, and m1002859, respectively. Processed the sample according to the instructions of the ELISA detection kit, adjusted the blank well to zero, measured the absorbance (OD value) of each well sequentially at a wavelength of 450 nm, and calculated the sample concentration based on the standard curve and OD value. […]
Dosing volume: 10 mL/kg • 1. […] Histochemical test: After the behavioral test, the cerebrospinal fluid from each animal (N=10) was collected, centrifuged to collect the supernatant, and stored at −80° C. for Elisa test (IL-6, IL-1β, TNF-α), then the animals in each group (N=5) were randomly selected to take the modeling side of the striatum for the detection of neurotransmitters, and the rest of them (N=5) were subjected to cardiac perfusion, which was performed by the process of perfusion, fixation, sedimentation and slicing for immunofluorescence staining and photographed, and the number or area of signals were counted by ImageJ software. • 4. […]

[2] = BTUDC-H 1000 mg/kg p.o. Qd 21 days, p<0.001 vs Model

**Q.** For `COc1ccc2cc3[n+](cc2c1OC)CCc1cc2c(cc1-3)OCO2.C[C@H](CCC(=O)NCCS(=O)(=O)[O-])[C@H]1CC[C@H]2[C@@H]3[C@@H](O)C[C@@H]4C[C@H](O)CC[C@]4(C)[C@H]3CC[C@]12C` [BTUDC, Berberine tauroursodeoxycholate], which “Iba-1 staining SN positive cells num.” value [1, 2] is on record?
**A.** 270.0 ± 21.5

**Q.** What about the “Iba-1 staining Str positive cells num.” value [1, 2] of the same compound?
**A.** 556.5 ± 16.2

**Q.** What about the “Iba-1 staining SN positive cells num.” value ([1]; BTUDC-L 100 mg/kg p.o. Qd 21 days, no significance mark) of the same compound?
**A.** 413.7 ± 42.8

**Q.** What about the “Iba-1 staining Str positive cells num.” value ([1]; BTUDC-L 100 mg/kg p.o. Qd 21 days, p<0.01 vs Model) of the same compound?
**A.** 601.7 ± 14.2

**Q.** And the “Iba-1 staining SN positive cells num.” value ([1]; BTUDC-M 500 mg/kg p.o. Qd 21 days, no significance mark)?
**A.** 393.1 ± 20.1

**Q.** And the “Iba-1 staining Str positive cells num.” value ([1]; BTUDC-M 500 mg/kg p.o. Qd 21 days, p<0.01 vs Model)?
**A.** 602.7 ± 9.1

**Q.** And the “TNF-α Conc.” value (TNF-α)?
**A.** 250.424 ± 9.186 pg/mL

— US20260217699A1, “BERBERINE TAUROURSODEOXYCHOLATE COMPOSITIONS AND METHODS THEREOF” (SHENZHEN HIGHTIDE BIOPHARMACEUTICAL LTD., priority 2023, published 2026)
